Laboratory results from US20090012148A1, “REDUCING CELLULAR CHOLESTEROL LEVELS AND/OR TREATING OR PREVENTING PHOSPHOLIPIDOSIS” (priority 2005, published 2009).

Experiments:
Assay type in all cases: cell-based, Chinese hamster
CT43 cells = test: Toxicity assay by cell count (Hoechst 33258); details: 24 h
Procedure: (§1) To measure toxicity, we treated CT60 and CT43 cells with compounds at 5, 10 and 20 μM for 24 h. The cell number per well was compared to control cells treated with DMSO (FIG. 7). […] Compound 1-a-14 did cause a 50% reduction in cell number at 10 μM for CT60 and an 80% reduction for CT43 cells. Compounds 1-a-4, 5, 6, 8 and 13 were partially toxic as indicated by 20-30% reduction in cell number after 24 h at 10 μM. Procedure Using Cell Count Assay: Compounds were added to CT60 and CT43 cells plated in 384 well plates at 0 (DMSO solvent control), 5, 10 and 20 μM concentrations in quadruplicate using methods similar to the dose dependence assay, except that the cells were stained with Hoechst 33258 nuclear stain. The final DMSO concentration in each well was 0.2%. For the control cells an equivalent amount of DMSO was added to the cells. The cells were incubated for 24, 48 and 72 h. After each time period, cells were washed and then fixed with 1.5% PFA. After washing the cells three times with PBS, the nuclei of the cells were stained using 5 μg/ml Hoechst 33258 (25 mg/ml stock solution in DMSO) in PBS for 45 m at room temperature. Finally, cells were washed three times with PBS, and images were obtained using a Nikon 4× Plan Apo 0.2NA objective. For Hoechst imaging we used the same filter set as for filipin. We collected one 520×696 pixel image per well at 12 intensity bits per pixel. Each pixel is 3.125 by 3.125 μm in […] the object. Cells were counted by defining the standard area of single nuclei (˜200 μm^2) interactively for each plate using the Integrated Morphometry Analysis function of MetaMorph. The number of standard areas per object above a threshold was determined, and the total number of standard areas per image was used as the cell count. The percent reduction in the number of cells compared to DMSO control was calculated for each concentration and time.

CT60 cells [1] = test: Toxicity assay by cell count (Hoechst 33258)
Procedure: as §1

CT60 cells [2] = test: Gas chromatography cholesterol assay
Procedure: The cholesterol lowering effect of the 14 hit compounds identified by filipin labeling was measured by an alternative chemical method that involved GC separation of solvent-extracted cellular lipids (43). CT60 cells were treated with compounds at 10 μM under the same conditions as in the screening assays. Since the GC assay estimates FC content per cell, the values are compared to the average filipin intensity assay (Table 1).
CT60 or CT43 cells were plated on day 1 in 6-well plates. Hit compounds were added to the cells at 10 μM concentration. Cells were incubated for 24 h. Cellular lipids were extracted with hexane: iso-propyl alcohol (3:2 v/v). The lipid extracts were dried and re-suspended in hexane followed by separation on gas chromatograph using β-sitosterol as an internal standard.
Procedure: CT60 cells were plated in 6-well plates in Ham's F-12/1.176 g/L sodium bicarbonate/2 g/L glucose/10% FBS. Following 24 h incubation, cells were treated with 10 μM of each compounds, medium being replaced with Ham's F-12/1.176 g/L sodium bicarbonate/2 g/L glucose/5.5% FBS/20 mM HEPES. The change of the medium in the wells was performed to have experimental conditions similar to those used for the screening once chemical compounds were added to the cells. After 18 h treatment with compounds, cells were washed twice with Hank's balanced salt solutions (HBSS). Cellular lipids were extracted with hexane/isopropyl alcohol (3:2 v/v) (43) dried and resuspended in hexane followed by separation on a gas chromatograph (GC) using following conditions. A Hewlett Packard GC model HP 5890 series II (Palo Alto, Calif.) equipped with a flame ionization detector, split-splitless injector, and 15 m×0.53 mm HP-5 capillary column coated with […] film thickness of 5% phenyl methyl siloxane was used to separate free cholesterol. The injection temperature was maintained at 255° C. and oven temperature was held isothermally at 260° C. using helium as a mobile phase at 30 mL/min flow rate. The free cholesterol (FC) was quantified using beta-sitosterol as internal standard to correct for lipid losses during extraction.

CT60 cells [3] = test: DiI-LDL uptake; details: DiI-LDL 6 μg/ml, compounds 10 μM, 20 hours, ±SEM
Procedure: CT60 cells were grown to 70% confluency in 96 well special optics plates (Corning, Inc., Corning, N.Y.). After 24 hours, cells were incubated with DiI-LDL (6 μg/ml) and hit compounds (10 μM) in screening medium supplemented with 20 mM HEPES. Each compound was added to 8 wells and an equivalent amount of DMSO with DiI-LDL was added to control wells. After 20 h, cells were washed three times with PBS, fixed with 1.5% PFA for 20 min, and stained with 50 μg/ml filipin for 45 min. Images were acquired using the Discovery-1 automatic fluorescence microscope at 20× magnification. DiI-LDL images were acquired using 535 nm/40 nm excitation filter and 610 nm/60 nm band pass with a Chroma 51001bs DiChroic filter. Filipin images were acquired as described above. Images were acquired for 4 sites per well, yielding 32 images per compound. The DiI-LDL images were background and shade corrected as described above. A low threshold was set to define the cell area based on filipin images. Finally, the average DiI-LDL intensity was measured per cell area.
Cells were incubated with DiI-LDL (6 μg/ml) in the presence of compounds (10 μM) for 20 hours. The intensity per unit cell area was measured as described in Methods. Values are normalized to the intensity per cell area for control (solvent-treated) cells. Values are based on averages from 32 images from 8 wells for each condition. ±SEM.

25RA CHO cells = test: 3H cholesterol efflux assay on 25RA CHO cells; details: 10 μM, overnight chase
Procedure: 25RA CHO cells were incubated with 10 μM concentrations of compound 2-a-1, 2-a-3,2-a-8, 2-a-9, and 2-a-13. Cells were loaded with ^3H cholesterol and then chased overnight in the presence or absence of the various compounds. The media over the cells were removed, and radioactivity released from the cells was measured. The cells were then solubilized, and radioactivity remaining in the cells was measured. […] The 25-RA cells do have a defect in SCAP, which alters cholesterol homeostasis, including increased synthesis of cholesterol.

Structure (SMILES) | reduction in cell number (CT43 cells; 10 μM) | reduction in cell number (CT60 cells [1]; 10 μM, 24 h) | μg FC/μg Protein by GC Fraction of control (CT60 cells [2]; 10 μM, FC = free cholesterol) | Cell Count After 24 h @ 10 μM dose Fraction of Control (CT60 cells [1]; 10 μM) | DiI Intensity/cell area Fraction of control (CT60 cells [3]) | μg FC/μg Protein (GC) @ 10 μM dose Fraction of Control (CT60 cells [2]) | efflux of cholesterol (25RA CHO cells) | reduction in the number of cells (CT43 cells; 20 μM) | reduction in the number of cells (CT60 cells [1]; 20 μM, 24 h)
CCOc1cccc2cc(-c3csc(Nc4cccc(C(F)(F)F)c4)n3)c(=O)oc12 [Compound 1-a-14] | 80% | 50% | 1.44 ± 0.16 Fraction of control | – | – | – | – | – | –
COc1ccccc1Nc1nc(Nc2ccccc2OC)nc(Nc2ccccc2OC)n1 [Compound 2-a-9] | – | – | – | 0.90 Fraction of Control | 0.85 ± 0.01 Fraction of control | 0.75 ± 0.04 Fraction of Control | promote efflux of cholesterol | – | –
FC(F)(F)COc1nc(NN=Cc2cccc(I)c2)nc(N(c2ccccc2)c2ccccc2)n1 [Compound 2-a-12] | – | – | – | 0.67 Fraction of Control | 0.72 ± 0.01 Fraction of control | – | – | 75% | 75%
C=CCN1C(=O)C(=Cc2cc(C)n(-c3ccccc3)c2C)C(C(=O)OC)=C1C [Compound 2-a-15] | – | – | – | 0.94 Fraction of Control | 1.00 ± 0.01 Fraction of control | 0.89 ± 0.03 Fraction of Control | – | – | –
O=[N+]([O-])c1cccc(C=NNc2nc(Nc3cccc4ccccc34)nc(N(c3ccccc3)c3ccccc3)n2)c1 [Compound 2-a-13] | – | – | – | 1.00 Fraction of Control | 0.72 ± 0.01 Fraction of control | 0.79 ± 0.04 Fraction of Control | promote efflux of cholesterol | – | –
CCN(CC)c1ccc(C=C2SC(=S)N(c3ccc(OC)cc3)C2=O)cc1 [Compound 2-a-3] | – | – | – | 1.00 Fraction of Control | 0.62 ± 0.01 Fraction of control | 0.81 ± 0.03 Fraction of Control | promote efflux of cholesterol | – | –
